Assay results from patent US20230220331A1, “TEMPORARY TREATMENT MEDIUM, TREATMENT KIT, EMBRYOGENESIS ARREST INHIBITOR, EMBRYOGENESIS ARREST INHIBITORY METHOD, DEVELOPMENTAL ENGINEERING PRODUCT PREPARATION METHOD, TRANSPLANTATION METHOD, THERAPEUTIC METHOD, AND DEVELOPMENTAL ENGINEERING PRODUCT” (priority 2020, published 2023).

System: frozen embryos of C57BL/6J
Assay: Recovery of re-frozen and re-thawed blastocysts, cytochalasin B vs Y-27632 (Treatment Example 10)
Type: cell-based, mouse
Conditions: for RECOVERY RATE about 3 hours later / RECOVERY RATE about 24 hours later / RECOVERY RATE immediately after thawing / number of embryos ABOUT 3 HOURS LATER / number of embryos ABOUT 24 HOURS LATER / number of embryos IMMEDIATELY AFTER THAWING: 19 embryos
Procedure: In this treatment example, as in the above-mentioned treatment example 9, the normal medium (hereinafter, referred to as “Y− medium” as in the treatment example 9), the temporary treatment medium to which Y-27632 is added (hereinafter, referred to as “Y+ medium” as in the treatment example 9), and a CB-added medium (hereinafter, referred to as “CB+ medium”) were used. The concentrations of CB in the CB+ medium were 5 μM and 10 μM are prepared. As the manipulation, the recovery rates when frozen embryos were thawed and developed, then re-frozen in blastocysts and re-thawed were compared.
For the treatment, 107 frozen embryos of C57BL/6J (provided from CLEA Japan, Inc.) at the 2-cell stage were used. Firstly, the frozen embryos at the 2-cell stage were thawed and blastocysts were developed as they were in a normal medium.
Then, the blastocysts were then transferred to each of the above media and placed for 30 minutes. Then, the embryos were transferred to Y− medium again and placed for 30 minutes.
Then, each embryo was frozen.
Then, the embryos were then thawed and placed in M2 medium for 10 minutes.
Then, each embryo was evenly divided and placed on the medium for 1 hour.
The embryos were observed by returning to the Y− medium again. This observation was performed immediately after thawing, 3 hours later, and 24 hours later.

## C=C1[C@@H](C)[C@H]2[C@H](Cc3ccccc3)NC(=O)[C@]23OC(=O)/C=C/[C@H](O)CCC[C@@H](C)C/C=C/[C@H]3[C@@H]1O [CB+ mWM, 2H-Oxacyclotetradecino[2,3-d]isoindole-2,18(5H)-dione, 6,7,8,9,10,12a,13,14,15,15a,16,17-dodecahydro-5,13-dihydroxy-9,15-dimethyl-14-methyl ene-16-(phenylmethyl)-, (3E,5R,9R,11E,12aS,13S,15S,15aS,16S,18aS)-]
5 μM in mWM
  RECOVERY RATE about 3 hours later: 94%
  RECOVERY RATE about 24 hours later: 78%
  RECOVERY RATE immediately after thawing: 26%
  number of embryos ABOUT 3 HOURS LATER: 18
  number of embryos ABOUT 24 HOURS LATER: 15
  number of embryos IMMEDIATELY AFTER THAWING: 5
10 μM in mWM
  RECOVERY RATE about 3 hours later: 52%
  RECOVERY RATE about 24 hours later: 63%
  RECOVERY RATE immediately after thawing: 10%
  number of embryos ABOUT 3 HOURS LATER: 10
  number of embryos ABOUT 24 HOURS LATER: 12
  number of embryos IMMEDIATELY AFTER THAWING: 2
After 24 hours
  recovery rate of 5 μM higher than that of 10 μM: 15%
